Our source for the EC50, CC50 and MCC values is ChEMBL document CHEMBL1138246, “Ester prodrugs of cyclic 1-(S)-[3-hydroxy-2-(phosphonomethoxy)propyl]-5-azacytosine: synthesis and antiviral activity” (J Med Chem, 2007).

Converted amounts (≈) assume the structure as drawn.

The EC50 is the concentration giving half of the maximal effect. Low values mean higher potency in that assay, high ones lower potency in that assay. Broadly, the CC50 is the concentration giving 50% cytotoxicity.

Series [1] concerns Human alphaherpesvirus 2. Format: functional, organism-based. As to conditions: Human alphaherpesvirus 2, G, HEL.
Series [2] has as its system HEL. Nature of the series: Cytotoxicity against HEL cells assessed as cell growth after 3 days. Format: functional, Homo sapiens. Conditions: Homo sapiens, HEL, 72 h; read-out: CC50.
For series [3], the system named is HEL. Nature of the series: Cytotoxicity against HEL cells assessed as alteration in morphology after 3 days. The format is functional. As to conditions: Homo sapiens, 72 h.
In the next series the test system is Human respirovirus 3. Nature of the series: Antiviral activity against Parainfluenza 3 in Vero cells reduction of virus-induced cytopathogenicity after 4 days. Conditions: Human respirovirus 3, Vero, 96 h. The format is functional, organism-based. (In general: Cytopathic effects are the visible damage that an infection or toxin causes in cultured cells.)
A further series concerns HeLa. As to the kind of experiment: Cytotoxicity against HeLa cells assessed as alteration in morphology after 3 days. Format: functional, cell-based. Conditions: Homo sapiens, 72 h.
Series [4] can be described thus: Cytotoxicity against Vero cells assessed as alteration in morphology after 3 days. Format: cell-based, Chlorocebus sabaeus. As to conditions: chlorocebus sabaeus, Vero cells.
Series [5] concerns Coxsackievirus B4. The format is functional, organism-based. Conditions: Enterovirus B, HeLa.
For series [6], the system named is Human alphaherpesvirus 2. The format is functional, organism-based. As to conditions: Human alphaherpesvirus 2, Lyons, HEL.
Series [7] deals with Vesicular stomatitis virus. As to the kind of experiment: microbe, parasite or virus in culture. As to conditions: HeLa.
Series [8] has as its system Human alphaherpesvirus 3. Format: functional, organism-based. Conditions: Human alphaherpesvirus 3, OKA, HEL.
Series [9] concerns Mammalian orthoreovirus 1. Nature of the series: Antiviral activity against Reovirus 1 in Vero cells reduction of virus-induced cytopathogenicity after 4 days. The format is functional, organism-based. Conditions: Mammalian orthoreovirus 1, Vero, 96 h.
In a further series the test system is Punta Toro virus. As to the kind of experiment: Antiviral activity against Punta Toro virus in Vero cells reduction of virus-induced cytopathogenicity after 4 days. Format: functional, organism-based. As to conditions: 96 h.
Series [10] relates to Coxsackievirus B4. Format: functional, organism-based. As to conditions: Enterovirus B, Vero.
In the next series the test system is Sindbis virus. As to the kind of experiment: Antiviral activity against Sindbis virus in Vero cells reduction of virus-induced cytopathogenicity after 4 days. Format: functional, organism-based. As to conditions: 96 h.
The subject of series [11] is Vesicular stomatitis virus. As to the kind of experiment: microbe, parasite or virus in culture. Conditions: HEL.
In series [12] the test system is Respiratory syncytial virus. Format: functional, organism-based. Conditions: human respiratory syncytial virus, HeLa.
The test system of series [13] is Human alphaherpesvirus 3. Format: functional, organism-based. As to conditions: Human alphaherpesvirus 3, 07-1, HEL.
Series [14] deals with Human immunodeficiency virus 2. Format: functional, organism-based. As to conditions: Human immunodeficiency virus 2, ROD, CCRF-CEM, 96 h.
Series [15] has as its system Human immunodeficiency virus 1. The format is functional, organism-based. As to conditions: Human immunodeficiency virus 1, 3B, CCRF-CEM, 96 h.
For series [16], the system named is Human betaherpesvirus 5. The format is functional, organism-based. Conditions: Human betaherpesvirus 5, AD169, HEL.
Series [17] is described as follows: Cytotoxicity against C3H cells assessed as alteration in morphology after 3 days. Conditions: mouse, C3H cells. The format is cell-based, Mus musculus.
The test system of series [18] is Moloney murine sarcoma virus. As to conditions: C3H.
Series [19] deals with Human betaherpesvirus 5. The format is functional, organism-based. Conditions: Human betaherpesvirus 5, Davis, HEL.
Series [20] can be described thus: Cytotoxicity against HSB2 cells assessed as alteration in morphology after 3 days. As to conditions: Homo sapiens, CCRF-HSB-2, 72 h; read-out: MCC. The format is functional, Homo sapiens, CCRF-HSB-2.
For the next series, the system named is Human adenovirus 2. Format: functional, organism-based. Conditions: Human mastadenovirus C, HEL.

In turn, `Nc1nc2c(ncn2COCCO)c(=O)[nH]1` [ACYCLOVIR] yielded an EC50 with Human alphaherpesvirus 2 [1] of 0.05 µg/mL (≈ 0.222 µM). In addition, the CC50 in the series with HEL [2] turned out to be 212 µg/mL (≈ 941 µM). Moreover, in the series with HEL [3], the MCC was more than 100 µg/mL.
As for `O=c1[nH]c(=O)n([C@H]2C[C@H](O)[C@@H](CO)O2)cc1/C=C/Br` [BRIVUDINE], the EC50 with Human respirovirus 3 is more than 200 µg/mL; in the series with Human alphaherpesvirus 2 [1] it was 9 µg/mL (≈ 27 µM); in the series with Coxsackievirus B4 [5] it was more than 200 µg/mL; in the series on Human alphaherpesvirus 2 [6] it was 8.8 µg/mL (≈ 26.4 µM); in [7], 200 µg/mL (≈ 600 µM); in the series on Human alphaherpesvirus 3 [8], 0.0022 µg/mL (≈ 0.0066 µM). The EC50 was more than 200 µg/mL in series [9]; more than 200 µg/mL with Punta Toro virus; more than 200 µg/mL with Coxsackievirus B4 [10]; more than 200 µg/mL with Sindbis virus; 200 µg/mL (≈ 600 µM) in series [11]; more than 200 µg/mL in [12]. Besides, the EC50 in the series with Human alphaherpesvirus 3 [13] was not below 44.4 µg/mL. The MCC in the series with HeLa was more than 200 µg/mL; with HEL [3], more than 100 µg/mL. In series [4], the MCC at 72 h is more than 200 µg/mL. In addition, in the series with HEL [2], the CC50 turned out to be 212 µg/mL (≈ 636 µM).
Take `Nc1ccn(C[C@@H](CO)OCP(=O)(O)O)c(=O)n1.O.O` [CIDOFOVIR]: the EC50 in the series on Human respirovirus 3 was more than 31.5 µg/mL; in [14] it was more than 20 µg/mL; in series [15], more than 20 µg/mL; with Human betaherpesvirus 5 [16], 0.15 µg/mL; in series [18], more than 4 µg/mL; in the series with Human alphaherpesvirus 2 [1], 0.65 µg/mL. Moreover, the EC50 in the series with Coxsackievirus B4 [5] was more than 31.5 µg/mL; in the series with Human alphaherpesvirus 2 [6], 0.42 µg/mL; in series [7] it was more than 31.5 µg/mL; with Human betaherpesvirus 5 [19] it was 0.18 µg/mL; in the series with Human alphaherpesvirus 3 [8], 0.09 µg/mL; in the series on Human adenovirus 2, 2 µg/mL. Also, the EC50 (in [9]; with Punta Toro virus; in the series with Coxsackievirus B4 [10]; in the series with Sindbis virus; in series [11]; in [12]) was more than 31.5 µg/mL throughout. It took 0.03 µg/mL to reach a half-maximal effect with Human alphaherpesvirus 3 [13] (EC50). Also, the MCC is more than 31.5 µg/mL in the series with HeLa, 60 µg/mL in series [20] and more than 31.5 µg/mL in the series on HEL [3]. In addition, the MCC at 72 h in [4] was more than 31.5 µg/mL; in series [17], 20 µg/mL. The CC50 with HEL [2] is 76 µg/mL.
With `Nc1ccn(C[C@H]2COP(=O)(O)CO2)c(=O)n1` [CYCLIC CIDOFOVIR], the EC50 with Human respirovirus 3 was more than 200 µg/mL; in series [14] it was more than 20 µg/mL; in series [15], more than 20 µg/mL; in the series with Human betaherpesvirus 5 [16] it was 0.21 µg/mL (≈ 0.804 µM); in series [18], more than 20 µg/mL; in the series with Human alphaherpesvirus 2 [1] it was 0.76 µg/mL (≈ 2.91 µM). Moreover, the EC50 in the series on Coxsackievirus B4 [5] is more than 200 µg/mL; in the series on Human alphaherpesvirus 2 [6], 0.45 µg/mL (≈ 1.72 µM); in series [7], more than 200 µg/mL; in the series with Human betaherpesvirus 5 [19] it was 0.22 µg/mL (≈ 0.842 µM); with Human alphaherpesvirus 3 [8] it was 0.12 µg/mL (≈ 0.459 µM); in series [9], more than 200 µg/mL. Further, the EC50 in the series on Punta Toro virus was more than 200 µg/mL; in the series on Coxsackievirus B4 [10], more than 200 µg/mL; with Sindbis virus it was more than 200 µg/mL; in series [11], more than 200 µg/mL; in [12], more than 200 µg/mL; in the series with Human alphaherpesvirus 3 [13], 0.04 µg/mL (≈ 0.153 µM). Also, the results for the MCC in the series with HeLa and in the series on HEL [3] were more than 200 µg/mL and more than 100 µg/mL, respectively. The MCC at 72 h is more than 200 µg/mL in series [4] and 100 µg/mL in series [17]. In the series on HEL [2], the CC50 is not below 76 µg/mL.
For `Nc1nc2c(ncn2COC(CO)CO)c(=O)[nH]1` [GANCICLOVIR], the EC50 with Human betaherpesvirus 5 [16] was 1.68 µg/mL (≈ 6.58 µM); in the series on Human alphaherpesvirus 2 [1] it was 0.0036 µg/mL (≈ 0.0141 µM); in the series with Human alphaherpesvirus 2 [6], 0.0014 µg/mL (≈ 0.00549 µM); in the series on Human betaherpesvirus 5 [19] it was 1.29 µg/mL (≈ 5.05 µM). The CC50 with HEL [2] came to 122 µg/mL (≈ 478 µM). In addition, in the series on HEL [3], the MCC was more than 100 µg/mL.
`NC(=O)c1ncn([C@@H]2O[C@H](CO)[C@@H](O)[C@H]2O)n1` [RIBAVIRIN]: the EC50 is 120 µg/mL (≈ 491 µM) in the series on Human respirovirus 3; 90 µg/mL (≈ 369 µM) in the series on Coxsackievirus B4 [5]; 24 µg/mL (≈ 98.3 µM) in series [7]; 200 µg/mL (≈ 819 µM) in series [9]; 40 µg/mL (≈ 164 µM) in the series with Punta Toro virus; more than 200 µg/mL with Coxsackievirus B4 [10]. The EC50 stood at 120 µg/mL (≈ 491 µM) in the series on Sindbis virus, 120 µg/mL (≈ 491 µM) in series [11] and 24 µg/mL (≈ 98.3 µM) in series [12]. Besides, the MCC in the series on HeLa and in the series with HEL [3] was more than 200 µg/mL each time. Further, the MCC at 72 h in [4] was more than 200 µg/mL.
